The IC50 is the concentration that gives 50% inhibition. Low readings indicate greater potency in that assay, high ones weaker potency in that assay.

The results in this text go back to US10053455B2, “Diazaspiroalkaneone-substituted oxazole derivatives as spleen tyrosine kinase inhibitors” (AB SCIENCE, priority 2014, dated 2018).

For one data set, the target named is VEGFR2 (Homo sapiens (Human), UniProt P35968). The data set can be described thus: HTRF kinase assay, VEGFR2. Format: biochemical. The settings on record: enzymatic determination. As to the method:
(§1) Most of the kinases tested in this study were cloned, expressed and purified in the facilities of the inventors. They were expressed either as N-terminus hexahistidine-, hexahistidine-asparagine- or GST-tagged enzymes in a baculovirus or in a Colibacille expression system. Remaining enzymes (JAKs) were purchased from Millipore or Proqinase. For each enzyme, steady state kinetic parameters were determined and validated with known inhibitors.
(§2) The analysis of the effect of compounds on kinase activity was assessed with the HTRF® KinEASE assay (Cisbio International), an immuno-assay based on the quantification of the level of phosphorylation of a biotinylated peptide substrate using anti-phospho-specific antibody labeled with Europium (Eu^3+) cryptate. This assay comprises two steps: —an enzymatic step, during which the peptide substrate, the kinase, ATP, Mg^2+ and/or Mn^2+ are incubated with varying concentration of drug (from 0 to 10 μM); —a detection step, at the end of the reaction (stopped by addition of EDTA which chelates Mg^2+), the antibody anti-phospho peptide-Eu^3+ (emission 620 nm) and streptavidin XL-665 (emission 665 nm) are added to the reaction mix. […] Results are expressed in delta fluorescence (DF) unit defined as follow DF %=[(ratio−ratio blank)/(ratio blank)]*100, where ratio=(665 nm/620 nm)*10^4. […]
A general note: TR-FRET usually uses a lanthanide donor and a delayed reading to cut background.

Another data set relates to Myeloperoxidase (MPO). Nature of the data set: Myeloperoxidase activity in K/BxN arthritis model. It is filed as in vivo, C57Bl/6 mice. As to the method:
K/B×N serum pools were prepared from arthritic mice at 8 weeks of age. The mice were pre-treated with SYK inhibitors by two per os administration for two days before induction of arthritis. Arthritis was induced in the C57Bl/6 mice (8 weeks of age) by intraperitoneal injection (7.5 μl serum per g weight) at days 0 and 2.
The treatment with SYK inhibitors was continued for 13 days. The control mice were injected with solvent before the induction of arthritis and during the course of the disease. The compounds were dissolved in a solution containing 10% of Tween 80 and 10% 1-2 propandiol. It was prepared before administration.
MPO activity was determined following published protocol (American Journal of Pathology, (2000), 156 (6):2169-2177). Briefly, tissue samples were weighed and suspended in 50 mmol/L potassium phosphate buffer (pH 6.0) containing 5 mg/ml hexadecyltrimethylammonium bromide (Sigma Chemical Co.) at a ratio of 50 mg tissue to 1 ml of buffer. […] Using a microtiter plate scanner, 200 μl of the reaction mixture (containing 16.7 mg of o-dianisidine (Sigma Chemical Co.), […] of distilled H2O, […] of potassium-phosphate buffer, and 50 μl of 1% H2O2) was added to each well containing 7 μl of sample in a standard 96-well plate and three absorbance readings at 5 min intervals at 450 nm were recorded.

The test system of data set [1] is rat neonatal cardiac myocytes. The data set can be described thus: Intracellular ROS in rat cardiomyocytes (CM-H2DCFDA). Format: cell-based. The settings on record: 10 μM, 8 hours. How it is done: 2×10^3 human cardiomyocytes (Promocell C-12810) or 4×10^4 rat neonatal cardiac myocytes (R-CM-561 Lonza) were seeded per well of a 96-well plate (black wall for fluorimetry usage (655090 Greiner Bio one)) 24 hours before drug treatment. Treatment was initiated by addition of a drug solution for a 10 μM final concentration. Doxorubicin was used at 5 μM as positive control for the induction of ROS. After 8 hours treatment with drugs, cells were loaded with 10 μM of CM-H2DCFDA (C6827 Invitrogen) for 1 hour, followed by 2 washes in PBS. CM-H2DCFDA is a membrane permeable reagent that can be enzymatically converted to dichlorodihydrofluorescein (DCF) in the presence of ROS. Fluorescent DCF was detected using a fluorescence spectrophotometer (BMG Labtech) with excitation of 485 nm and emission of 560 nm. The results were expressed as a relative percent of DCF-fluorescence in control cells.
Monitoring drug-induced increase in the production of reactive oxygen species (ROS) in cardiomyocyte may be important to predict the cardiotoxic side effects of a drug (Table 11). The production of ROS in human and rat cardiomyocytes was studied following 8 hours drug treatment at concentration of 10 μM. The results were expressed as a percent relative to the production of ROS induced by the cardiotoxic chemotherapeutic agent doxorubicin (100%).

The next data set concerns the target c-Ret WT (Homo sapiens (Human), UniProt P07949). The data set can be described thus: HTRF kinase assay, c-Ret WT. Format: biochemical. The settings on record: enzymatic determination. How it is done: as §1, §2
The target in the next data set is KIT D816V (Homo sapiens (Human), UniProt P10721, D816V). Nature of the data set: Cell-based proliferation assay on BaF3 model, KIT D816V. As to the method:
Cell-based proliferation and viability assay CellTiter-Bleue cell-based survival/proliferation assay (Promega G8080) was performed on BaF3 models.
A total of 1.10^4 cells/well/50 μl were seeded in a 96-wells plate. Treatment was initiated by addition of a 2× drug solution of ½ serial dilutions ranging from 0 to 10 μM. Cells were grown for 48-72 h at 37° C. and then incubated with 10 μl/well of Promega CellTiter-Bleue reagent for 4 h at 37° C. The amount of formazan dye formed was quantified by its absorbance at 450 nm using a scanning multiwell spectrophotometer (POLARstar Omega, BMG labtech, France). A blank well without cells was used as a background control for the spectrophotometer and all assays were performed in duplicates and the experiments were repeated at least twice.

Sequence of KIT D816V (P10721 26-976 D816V): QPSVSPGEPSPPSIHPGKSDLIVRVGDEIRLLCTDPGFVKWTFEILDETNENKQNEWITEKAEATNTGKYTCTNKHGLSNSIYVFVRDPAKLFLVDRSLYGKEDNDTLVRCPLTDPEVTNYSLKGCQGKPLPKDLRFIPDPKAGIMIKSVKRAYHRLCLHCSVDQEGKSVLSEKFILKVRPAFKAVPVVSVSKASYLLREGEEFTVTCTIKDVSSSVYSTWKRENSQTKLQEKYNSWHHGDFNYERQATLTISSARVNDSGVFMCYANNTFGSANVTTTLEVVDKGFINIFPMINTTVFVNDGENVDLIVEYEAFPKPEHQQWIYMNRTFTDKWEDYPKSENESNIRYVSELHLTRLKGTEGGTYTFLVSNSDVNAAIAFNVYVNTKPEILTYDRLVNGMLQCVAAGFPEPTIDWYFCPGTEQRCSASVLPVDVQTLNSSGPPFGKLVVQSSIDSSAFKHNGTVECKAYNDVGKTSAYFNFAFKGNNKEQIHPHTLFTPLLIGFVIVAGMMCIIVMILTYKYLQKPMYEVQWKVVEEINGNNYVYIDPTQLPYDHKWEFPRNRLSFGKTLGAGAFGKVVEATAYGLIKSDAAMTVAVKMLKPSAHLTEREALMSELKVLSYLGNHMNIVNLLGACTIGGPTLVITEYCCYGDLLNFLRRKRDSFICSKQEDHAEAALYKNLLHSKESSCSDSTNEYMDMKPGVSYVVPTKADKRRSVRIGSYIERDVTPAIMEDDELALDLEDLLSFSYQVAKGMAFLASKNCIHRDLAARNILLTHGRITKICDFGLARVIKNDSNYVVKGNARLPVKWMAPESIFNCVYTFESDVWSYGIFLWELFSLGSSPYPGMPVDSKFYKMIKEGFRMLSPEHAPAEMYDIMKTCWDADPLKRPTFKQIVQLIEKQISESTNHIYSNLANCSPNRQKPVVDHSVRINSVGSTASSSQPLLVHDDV
Sequence of VEGFR2 (P35968 20-1356, species assumed): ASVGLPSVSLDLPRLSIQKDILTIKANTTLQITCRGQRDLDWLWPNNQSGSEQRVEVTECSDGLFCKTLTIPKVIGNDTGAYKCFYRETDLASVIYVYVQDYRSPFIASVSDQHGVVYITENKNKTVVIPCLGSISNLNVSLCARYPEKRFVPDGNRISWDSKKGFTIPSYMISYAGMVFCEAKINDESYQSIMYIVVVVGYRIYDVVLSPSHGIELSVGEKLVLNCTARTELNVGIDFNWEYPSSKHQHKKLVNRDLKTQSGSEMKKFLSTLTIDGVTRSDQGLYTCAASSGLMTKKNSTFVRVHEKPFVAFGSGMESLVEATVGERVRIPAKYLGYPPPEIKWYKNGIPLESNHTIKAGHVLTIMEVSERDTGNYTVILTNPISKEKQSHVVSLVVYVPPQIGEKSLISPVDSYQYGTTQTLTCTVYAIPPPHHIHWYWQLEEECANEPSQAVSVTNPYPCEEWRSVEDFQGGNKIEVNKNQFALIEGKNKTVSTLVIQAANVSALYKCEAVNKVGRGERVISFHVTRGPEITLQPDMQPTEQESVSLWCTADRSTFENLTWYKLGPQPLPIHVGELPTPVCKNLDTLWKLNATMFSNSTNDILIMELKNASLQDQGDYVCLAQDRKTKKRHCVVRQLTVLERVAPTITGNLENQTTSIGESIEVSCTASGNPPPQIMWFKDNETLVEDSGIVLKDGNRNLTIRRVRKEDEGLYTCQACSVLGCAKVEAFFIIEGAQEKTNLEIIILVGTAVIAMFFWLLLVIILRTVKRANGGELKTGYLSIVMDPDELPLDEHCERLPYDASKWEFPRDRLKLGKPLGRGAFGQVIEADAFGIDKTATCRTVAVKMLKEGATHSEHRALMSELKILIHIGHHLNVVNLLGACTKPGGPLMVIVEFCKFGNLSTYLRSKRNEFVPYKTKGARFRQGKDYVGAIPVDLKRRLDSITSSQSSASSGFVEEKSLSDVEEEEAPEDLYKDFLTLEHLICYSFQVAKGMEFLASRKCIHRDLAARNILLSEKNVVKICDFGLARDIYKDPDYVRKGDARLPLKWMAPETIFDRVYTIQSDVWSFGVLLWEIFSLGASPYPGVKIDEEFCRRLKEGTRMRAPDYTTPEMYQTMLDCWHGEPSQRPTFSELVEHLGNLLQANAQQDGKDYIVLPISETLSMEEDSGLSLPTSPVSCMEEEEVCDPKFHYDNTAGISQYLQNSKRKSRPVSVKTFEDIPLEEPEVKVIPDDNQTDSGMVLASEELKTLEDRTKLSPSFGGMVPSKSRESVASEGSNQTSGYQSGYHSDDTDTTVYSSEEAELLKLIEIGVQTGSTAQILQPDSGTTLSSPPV
Sequence of c-Ret WT (P07949 29-1114): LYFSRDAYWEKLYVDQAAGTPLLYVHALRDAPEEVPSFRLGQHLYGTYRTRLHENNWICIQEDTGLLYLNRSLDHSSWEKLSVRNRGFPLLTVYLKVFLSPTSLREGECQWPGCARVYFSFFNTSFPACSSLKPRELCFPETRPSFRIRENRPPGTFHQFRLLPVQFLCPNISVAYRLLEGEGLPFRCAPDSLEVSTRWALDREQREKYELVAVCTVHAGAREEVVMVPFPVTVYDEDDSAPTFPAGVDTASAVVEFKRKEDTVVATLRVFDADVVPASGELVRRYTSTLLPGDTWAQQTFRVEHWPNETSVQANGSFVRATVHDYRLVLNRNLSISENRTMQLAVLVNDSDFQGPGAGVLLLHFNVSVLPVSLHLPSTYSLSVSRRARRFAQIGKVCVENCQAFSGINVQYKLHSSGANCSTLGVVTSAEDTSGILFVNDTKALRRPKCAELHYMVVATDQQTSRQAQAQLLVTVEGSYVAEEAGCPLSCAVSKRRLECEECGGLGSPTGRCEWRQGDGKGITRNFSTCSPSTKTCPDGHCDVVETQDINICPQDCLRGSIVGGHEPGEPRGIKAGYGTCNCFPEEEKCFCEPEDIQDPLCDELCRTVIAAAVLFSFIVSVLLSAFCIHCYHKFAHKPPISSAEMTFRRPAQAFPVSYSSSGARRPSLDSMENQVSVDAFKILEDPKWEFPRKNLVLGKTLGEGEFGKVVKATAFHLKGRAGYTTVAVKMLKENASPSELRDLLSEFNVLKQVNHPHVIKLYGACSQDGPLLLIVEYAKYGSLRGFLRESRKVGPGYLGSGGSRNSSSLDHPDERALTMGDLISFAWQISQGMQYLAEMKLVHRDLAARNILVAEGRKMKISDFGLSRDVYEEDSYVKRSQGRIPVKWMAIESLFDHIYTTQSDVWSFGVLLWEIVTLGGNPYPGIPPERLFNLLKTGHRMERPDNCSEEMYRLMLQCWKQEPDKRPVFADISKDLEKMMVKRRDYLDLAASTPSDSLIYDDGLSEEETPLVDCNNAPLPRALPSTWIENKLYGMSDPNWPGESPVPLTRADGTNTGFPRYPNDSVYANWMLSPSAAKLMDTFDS

With `Cc1ccnc(Nc2cccc(-c3cnc(N4CCNC(=O)C45CC5)o3)c2)n1` [Compound 001, 4-{5-[3-(4-Methyl-pyrimidin-2-ylamino)-phenyl]-oxazol-2-yl}-4,7-diaza-spiro[2.5]octan-8-one], the IC50 against VEGFR2 turned out to be 20 µM; against c-Ret WT, 10 µM; at KIT D816V it was 10 µM. The MPO activity in the data set with Myeloperoxidase (MPO) (KBxN + 15 mg/kg b.i.d.) was found to be 1.031 ± 0.24 U/ml; with Myeloperoxidase (MPO) (KBxN + 50 mg/kg b.i.d.), 0.348 ± 0.08 U/ml. Also, in data set [1], the “ROS production, activity relative to doxorubicine (100%), Rat-CM” value is on record as 0%.
